# Where a name gives a salt, the structure may show the parent alone.
# What was measured:
# vesamicol receptor [1] = settings: literature, cited from earlier work
# [2] = system: cholinergic neurotransmission; test: Pharmacological Activity of Spirovesamicols in Male Wistar Rats (anticholinergic signs and lethality, intraperitoneal); type: in vivo, rat; settings: i.p.
# Experimental: Rats and mice were injected intraperitoneally with solutions of the compounds in aqueous EtOH (or aqueous DMSO). […] LD20 lethal dose for 20% of animals tested; LD40, lethal dose for 40%; LD60, lethal dose for 60%; L100, lethal dose for all animals; NR, no visible pharmacologic reaction; S, sluggishness and reduced locomotor activity; +, mild symptoms of anticholinergic activity; ++, severe signs of anticholinergic activity.
# vesamicol receptor [3] = test: Vesamicol receptor binding ([3H]vesamicol); settings: for Ki: [3H]vesamicol approx. 5 nM, 24 h equilibration, racemates, read-out: Ki (Inhibitory potency of Spirovesamicols)
# [4] = system: cholinergic neurotransmission; test: Pharmacological Activity of Spirovesamicols in Male Swiss Webster Mice (anticholinergic signs and lethality, intraperitoneal); type: in vivo, mouse; settings: i.p.
# Experimental: In vivo anticholinergic activity was evaluated in Swiss Webster mice. Blockade of cholinergic neurotransmission (or anticholinergic activity) was manifested in a rapidly developing respiratory distress, spasms and paralysis. At lethal doses these symptoms were followed by death within 10-20 min. As evident in Tables 1 and 2, the representative compounds tested were lethal at doses as low as 10 umol/Kg.
# Rats and mice were injected intraperitoneally with solutions of the compounds in aqueous EtOH (or aqueous DMSO). […] At lethal doses, death generally occurred within 20 minutes following the injection. LD20 lethal dose for 20% of animals tested; LD40, lethal dose for 40%; LD60, lethal dose for 60%; L100, lethal dose for all animals; NR, no visible pharmacologic reaction; S, sluggishness and reduced locomotor activity; +, mild symptoms of anticholinergic activity; ++, severe signs of anticholinergic activity.
# [5] = system: cholinergic neurotransmission; settings: Brittain et al, 1969; cited from earlier work
# α-adrenoceptor = settings: at higher doses; cited from earlier work
# [6] = system: storage and release of neurotransmitter; settings: literature; cited from earlier work
compound,measurement,setting,value
OC1CCNCC1N1CCC(c2ccccc2)CC1 (centres unmarked) [trozamicol],"potency/activity relative to vesamicol, in words",vesamicol receptor [1],poor ligand for vesamicol receptor
COc1ccc2c3c1OC1C(=O)CCC4C(C2)N([C@@H]2CCCC[C@H]2O)CCC314 (some centres unmarked) [Compound 7b],"potency/activity relative to vesamicol, in words",vesamicol receptor [1],inactive
"OC1Cc2ccccc2CC1N1CCC2(C=Cc3c(Br)cccc32)CC1 (centres unmarked) [Compound 15, 1'-(2-Hydroxy-1,2,3,4-tetrahydronaphth-3-yl)-spiro[4-bromo-1H-indene-1,4'-piperidine]Hydrochloride]",Pharmacological Activity,[2]; 50 umol/Kg,+
same,Ki,vesamicol receptor [3],0.212 ± 0.063 nM
"OC1CCCCC1N1CCC2(C=Cc3ccccc32)CC1 (centres unmarked) [Compound 11a, 1'-(2-Hydroxycylohex-1-yl)spiro[1H-indene-1,4'-piperidine]Hydrochloride]",Pharmacological Activity,[2]; 10 umol/Kg,+
same,Pharmacological Activity,[2]; 22.5 umol/Kg,++
same,Pharmacological Activity,[2]; 45 umol/Kg,LD100
same,Pharmacological Activity,[4]; 12.5 umol/Kg,+
same,Pharmacological Activity,[4]; 25 umol/Kg,LD40 (lethal dose for 40%)
same,Pharmacological Activity,[4]; 50 umol/Kg,LD60 (lethal dose for 60%)
same,Pharmacological Activity,[4]; 100 umol/Kg,LD100
same,Ki,vesamicol receptor [3],0.622 ± 0.082 nM
"OC1Cc2ccccc2CC1N1CCC2(C=Cc3cc(Br)ccc32)CC1 (centres unmarked) [Compound 16, 1'-(2-Hydroxy-1,2,3,4-tetrahydronaphth-3-yl)-spiro[5-bromo-1H-indene-1,4'-piperidine]Hydrochloride]",Ki,vesamicol receptor [3],1.4 ± 0.3 nM
"OC1CCN(Cc2cccc(I)c2)CC1N1CCC2(C=Cc3ccccc32)CC1 (centres unmarked) [Compound 11d, 1'-(4-Hydroxy1-(3-iodobenzyl)piperidin-3-yl)-spiro[1H-indene-1,4'-piperidine]dihydrochloride]",Ki,vesamicol receptor [3],0.264 ± 0.078 nM
O=C1NCN(c2ccccc2)C12CCN([C@@H]1CCCC[C@H]1O)CC2 (relative stereo) [Compound 6b],"potency/activity relative to vesamicol, in words",vesamicol receptor [1],inactive
"OC1CCCCC1N1CCC2(CCCc3ccccc32)CC1 (centres unmarked) [Compound 13a, 3,4-Dihydro-1'-(2-Hydroxycyclohex-1-yl)-spiro[naphthalene-1,4'-piperidine]hydrochloride]",Ki,vesamicol receptor [3],24.2 ± 5.71 nM
O=[N+]([O-])c1ccc(C2CCN([C@@H]3CCCC[C@H]3O)CC2)cc1 (relative stereo) [Compound 1c],"potency/activity relative to vesamicol, in words",vesamicol receptor [1],between two and eight times less potent than vesamicol
"OC1CCN(Cc2ccc(F)cc2)CC1N1CCC2(CCCc3ccccc32)CC1 (centres unmarked) [Compound 13f, 1'-(1-(4-fluorobenzyl)-4-hydroxypiperidin-3-yl)-3,4-dihydrospiro[naphthalene-1(2H),4'-piperidine]]",Ki,vesamicol receptor [3],2.6 ± 0.9 nM
"OC1CCN(Cc2ccccc2I)CC1N1CCC2(CCCc3ccccc32)CC1 (centres unmarked) [Compound 13c, 1'-(1-(2-Iodobenzyl)-4-hydroxypiperidin-3-yl)-3,4-dihydrospiro[naphthalene-1(2H),4'-piperidine]]",Ki,vesamicol receptor [3],5.8 ± 1.7 nM
OC1CCN(Cc2cccc(I)c2)CC1N1CCC(c2ccccc2)CC1 (centres unmarked) [MIBT],"potency/activity relative to vesamicol, in words",vesamicol receptor [1],potent ligands
COc1ccc2c3c1OC1C(O)C=CC4C(C2)N([C@@H]2CCCC[C@H]2O)CCC341 (some centres unmarked) [Compound 7a],"potency/activity relative to vesamicol, in words",vesamicol receptor [1],inactive
OC(Cc1ccc(Br)cc1)CN1CCC(c2ccccc2)CC1 (centres unmarked) [Compound 2a],"potency/activity relative to vesamicol, in words",vesamicol receptor [1],equipotent with vesamicol
"OC1CCCCC1N1CCC(c2ccccc2)CC1 (centres unmarked) [Compound 1, 2-(4-phenylpiperidino)cyclohexanol]",Ki,vesamicol receptor [3],1 nM
same,effects in laboratory animals,[5],"induces respiratory paralysis, spasms and death"
same,α-adrenoceptor activity,α-adrenoceptor,exhibits α-adrenoceptor activity at higher doses
same,effect on storage and release of neurotransmitter,[6],selectively inhibits the storage and release of neurotransmitter
same,effect on synthesis of neurotransmitter,[6],without directly affecting the synthesis of this neurotransmitter
O[C@@H]1CCCC[C@H]1N1CCC(c2ccc(Cl)cc2)CC1 (relative stereo) [Compound 1b],"potency/activity relative to vesamicol, in words",vesamicol receptor [1],between two and eight times less potent than vesamicol
Nc1cccc2c1C[C@@H](N1CCC(c3ccccc3)CC1)[C@H](O)C2 (relative stereo) [Compound 2b],"potency/activity relative to vesamicol, in words",vesamicol receptor [1],a potent VR ligand
"OC1Cc2ccccc2CC1N1CCC2(C=Cc3ccc(Br)cc32)CC1 (centres unmarked) [Compound 17, 1'-(2-Hydroxy-1,2,3,4-tetrahydronaphth-3-yl)spiro[6-bromo-1H-indene-1,4'-piperidine]Hydrochloride]",Ki,vesamicol receptor [3],0.271 ± 0.056 nM
same,effect of bromine on potency,vesamicol receptor [3]; in words,slight reduction in potency
"OC1Cc2ccccc2CC1N1CCC2(CCCc3ccccc32)CC1 (centres unmarked) [Compound 13b, 3,4-Dihydro-1'-(2-hydroxy-1,2,3,4-tetrahydronaphth-3-yl)-spiro[naphthalene-1(2H), 4'-piperidine]hydrochloride]",Ki,vesamicol receptor [3],18.4 ± 14 nM
"OC1CCN(Cc2cccc(I)c2)CC1N1CCC2(CCCc3ccccc32)CC1 (centres unmarked) [Compound 13d, 1'-(1-(3-Iodobenzyl)-4-hydroxypiperidin-3-yl)-3,4-dihydrospiro[naphthalene-1(2H),4'-piperidine]]",Pharmacological Activity,[2]; 50 umol/Kg,S
same,Pharmacological Activity,[2]; 125 umol/Kg,LD100
same,Ki,vesamicol receptor [3],0.082 ± 0.02 nM
same,"potency relative to vesamicol, in words",vesamicol receptor [3]; compared with vesamicol / (-)-vesamicol,at least ten times more potent than (-)-vesamicol
"O[C@@H]1CCCC[C@H]1N1CCC(c2ccccc2)CC1 [(-)-vesamicol, reference compound]",Kd,"vesamicol receptor [3]; conditions of this assay, read-out: dissociation constant (kd)",1 nM
"1'(4-Hydroxy-1-(2-fluorobenzyl)piperidin-3-yl)-spiro[1H-indene-1,4'-piperidine]dihydrochloride [Compound 11f]",Ki,vesamicol receptor [3],0.248 ± 0.025 nM
O[C@@H]1CCCC[C@H]1N1CCc2ccccc2C1 (relative stereo) [Compound 6a],loss of activity relative to vesamicol,vesamicol receptor [1]; less active than vesamicol,125 times
"OC1CCN(Cc2ccccc2I)CC1N1CCC2(C=Cc3ccccc32)CC1 (centres unmarked) [Compound 11c, 1'-(4-Hydroxy1-(2-iodobenzyl)piperidin-3-yl)-spiro[1H-indene-1,4'-piperidine]dihydrochloride]",Ki,vesamicol receptor [3],0.798 ± 0.187 nM
"OC1Cc2ccccc2CC1N1CCC2(CC1)C(Br)=Cc1ccccc12 (centres unmarked) [Compound 14, 1'-(2-Hydroxy-1,2,3,4-tetrahydronaphth-3-yl)-spiro[2-bromo-1H-indene-1,4'-piperidine]Hydrochloride]",Pharmacological Activity,[2]; 12.5 umol/Kg,+
same,Pharmacological Activity,[2]; 25 umol/Kg,LD100
same,Pharmacological Activity,[2]; 50 umol/Kg,LD100
same,increase in potency on bromine substitution at C2,vesamicol receptor [3]; 11a vs 14,20 fold
same,Ki,vesamicol receptor [3],0.038 ± 0.006 nM
"OC1Cc2ccccc2CC1N1CCC2(C=Cc3ccccc32)CC1 (centres unmarked) [Compound 11b, 1'-(2-Hydroxy-1,2,3,4-tetrahydronaphth-3-yl)-spiro[1H-indene-1,4'-piperidine]Hydrochloride]",Pharmacological Activity,[2]; 1 umol/Kg,++
same,Pharmacological Activity,[2]; 5 umol/Kg,LD100
same,Pharmacological Activity,[2]; 10 umol/Kg,LD100
same,Pharmacological Activity,[2]; 20 umol/Kg,LD100
same,Pharmacological Activity,[4]; 1.25 umol/Kg,+
same,Pharmacological Activity,[4]; 2.5 umol/Kg,LD20 (lethal dose for 20% of animals tested)
same,Pharmacological Activity,[4]; 5.0 umol/Kg,LD20 (lethal dose for 20% of animals tested)
same,Pharmacological Activity,[4]; 10 umol/Kg,LD40 (lethal dose for 40%)
same,Pharmacological Activity,[4]; 20 umol/Kg,LD60 (lethal dose for 60%)
same,Pharmacological Activity,[4]; 40 umol/Kg,LD100
same,Ki,vesamicol receptor [3],0.121 ± 0.032 nM

# Reference: patent US5554752A, “Spirovesamicols” (Regents of the University of Minnesota, priority 1995, dated 1996)
